Source: publication PMC12113347, “Compound 3d Attenuates Metabolic Dysfunction-Associated Steatohepatitis via Peroxisome Proliferator-Activated Receptor Pathway Activation and Inhibition of Inflammatory and Apoptotic Signaling” (Metabolites, 2025)

Assays:
RAW264.7 cells = test: LPS-induced RAW264.7 cell inflammation model (TNF-α, NO, IL-6 in supernatant); format: cell-based
Method: RAW264.7 cells were bought from Guangzhou Huatuo Biological Technology Co., Ltd. (Guangzhou, China). RAW264.7 cells (1 × 10^5 cells/mL) were inoculated in 24-well plates. After 24 h, LPS (1 μg/mL) was added to induce cell inflammation. Subsequently, curcumin (100 μM), fenofibric acid (FA, 100 μM), or 3d (10, 20, 40 80 μM) was added for 24 h. The cell supernatant was collected for analysis of inflammatory factors, including nitric oxide (NO), interleukin-6 (IL-6), and tumor necrosis factor (TNF-α).

L02 cells = test: Apoptosis test (Annexin V/PI, flow cytometry) in FFA-treated L02 cells; format: cell-based, human; conditions: after FFA treatment
Method: L02 cells were inoculated in 6-well plates at 1 × 10^5 cells/mL, and after completing the lipid-accumulating cell modeling treatment according to the method described in 2.1, the cells were collected and washed with 1× PBS buffer.
Apoptosis test: Binding Buffer was used to resuspend the modeling-treated cells, cells were stained with Annexin V/PI, and apoptosis was determined using flow cytometry.

[1] = system: PPAR signaling pathway and p38 MAPK pathway proteins; test: Proteomics and Western blotting of liver tissue of HFD mice (PPAR pathway, p38 MAPK and apoptosis proteins); format: in vivo
Method: (§1) Proteome sequencing of liver tissue samples was performed according to the specific requirements of the protocol by Beijing Qinglian Baiao Biotechnology Co., Ltd. (Beijing, China). Mouse fecal samples were collected and frozen in liquid nitrogen and stored at −80 °C.
(§2) Proteins were extracted using RIPA lysate and a BCA kit for protein concentration, separated by SDS-PAGE gel electrophoresis, and transferred to PVDF membranes. The membranes were sealed with 5% skimmed milk and incubated at 4 °C overnight with primary antibodies, followed by co-incubation with the corresponding secondary antibodies. The protein bands were imaged using an infrared laser imager and quantitatively analyzed by ImageJ software. The antibodies used for Western blot were Acox1 (Abcam, ab184032), Acaa1 (Abcam, ab154091), EHHADH (Abcam, ab123490), PPARγ (Abcam, ab272718), PPARα (Abcam, ab314112), PPARδ (Abcam, ab178866), P38 (Abcam, ab31828), p-P38 (Abcam, ab195049), Bcl-2 (Abcam, ab182858), Caspase8 (Abcam, ab25901), anti-rabbit IgG (CST, 7074 S), and α-tubulin (Abcam, ab7291).

PPAR-related proteins = test: Western blotting of PPAR-related proteins in FFA-stimulated L02 cells; format: cell-based, human; conditions: Figure 6A
Method: as §2

gut microbiota = test: Gut microbiota composition by 16S rRNA sequencing in MASH mice; format: in vivo
Method: as §1
Total DNA was extracted by QIAamp DNA Stool Mini Kit, homogenized by lysis buffer, digested by proteinase, and purified by a centrifugal column and then passed through NanoDrop and agarose gel electrophoresis for quality control. PCR amplification was performed with primers specific to the V3-V4 region of the bacterial 16S rRNA gene (341F: 5′-CCTAYGGGRBGCASCAG-3′; 806R: 5′-[…]-3′), and the reaction system consisted of 2 × Taq PCR Master Mix, and the program was 95 °C pre-denaturation for […] (95 °C for 30 s, 55 °C for 30 s, 72 °C for 45 s) and extension at 72 °C for 10 min. After purification, bipartite sequencing was performed using the Illumina MiSeq PE300 platform. After QIIME2 quality control, the raw data were clustered into OTUs with 97% similarity, and the species were annotated based on the Silva database to analyze the Alpha/Beta diversity and differential flora.

[2] = In vitro stability in DMEM medium, simulated gastric fluid and simulated intestinal fluid (HPLC); format: in vitro ADME; conditions: 40 μM, 37 °C
Method: Elafibranor and 3d (40 μM) were dissolved in DMEM medium, as well as in simulated gastric fluid (SGF) and simulated intestinal fluid (SIF), respectively, at 37 °C. The concentration of the compounds was determined within 24 h by HPLC. The HPLC conditions comprised an ACQUITY UPLC BEH C18 column maintained at 40 °C with a mobile phase consisting of 20% ultrapure water and 80% acetonitrile, with a flow rate of 1 mL/min at 360 nm.

[3] = Pharmacokinetics of 3d in male SD rats, gavage; format: in vivo; conditions: for MRT last: read-out: MRT(0-t) (converted)
Method: (§3) The pharmacokinetics of 3d in vivo were evaluated using male SD rats. Following a 12 h fast, the rats were administered 3d (30 mg/kg) via gavage or tail vein injection, respectively, and blood samples were collected within 24 h for analysis of 3d blood concentration via HPLC. The PK parameters were calculated using the DAS 3.0, and oral bioavailability (F) was obtained by the following formula.F = AUCpo × Di.v/AUCi.v × Dpo × 100%(1)

[4] = Pharmacokinetics of 3d in male SD rats, tail vein injection; format: in vivo; conditions: 30 mg/kg; for half-life: SD, iv
Method: as §3

[5] = LPSs-induced, RAW264.7 macrophages, p < 0.01
[6] = HFD mice liver, Western blot, Figure 7A
[7] = male, SD, rat, blood, po, 30 mg/kg, rats, administered orally
[8] = male, rat, blood, SD rats, intravenous

For `CNc1ccc(C(=O)/C=C/c2cc(C)c(OC(C)(C)C(=O)OC(C)(C)C)c(C)c2)cc1` [3d], which “levels of each inflammatory factor (TNF-α, NO, IL-6)” value (RAW264.7 cells; LPS 1 μg/mL, 3d 10, 20, 40, 80 μM, 24 h) is on record?
Its value is “significantly reduced”.

And the IL-6 reduction (RAW264.7 cells; [5])?
Its IL-6 reduction is 48%.

And the NO decrease (RAW264.7 cells; [5])?
Its NO decrease is 51%.

What about the TNF-α reduction (RAW264.7 cells; [5]) of the same molecule?
The TNF-α reduction was 63%.

What about the apoptosis (L02 cells) of the same molecule?
The apoptosis was “decrease to near-normal levels”.

What about the “activation of caspase 8” value [1, 6] of the same molecule?
The value was “reversed the activation”.

What about the “expression of the anti-apoptotic protein Bcl-2” value [1, 6] of the same molecule?
Its value is “significantly up-regulated”.

What about the “degree of P38 phosphorylation” value ([1]; HFD mice liver, Western blot, Figure 7B) of the same molecule?
Its value is “significantly reduced”.

What about the “upregulation of Acox1, EHHADH, Acaa1” value ([1]; HFD mice liver, p < 0.001) of the same molecule?
The value was 2.3–3.1 fold.

And the “decrease in caspase-8” value ([1]; HFD mice liver, p < 0.01)?
Its value is 61%.

What about the “increase in Bcl-2” value ([1]; HFD mice liver, p < 0.01) of the same molecule?
Its value is 1.8 fold.

What about the “reduction in p-p38” value ([1]; HFD mice liver, p < 0.01) of the same molecule?
The value was 54%.

And the “PPAR-related proteins (PPAR α, γ, δ, Acox1, EHHADH, Acaa1) in liver tissues” value ([1]; HFD mice, Western blot, Figure 6B)?
The value was “decreasing trend of PPAR-related proteins was significantly reversed”.

What about the “PPAR-related proteins in L02 cells” value (PPAR-related proteins) of the same molecule?
The value was “significantly increased”.

What about the Bifidobacterium rise (gut microbiota) of the same molecule?
The Bifidobacterium rise was 1.9 fold.

And the Lactobacillus increase (gut microbiota)?
Its Lactobacillus increase is 2.7 fold.

What about the Proteobacteria decrease (gut microbiota; p < 0.05) of the same molecule?
Its Proteobacteria decrease is 68%.

And the “abundance of Firmicutes and Actinobacteria” value (gut microbiota; phylum level)?
The value was “significantly increased”.

And the “abundance of Proteobacteria and Deferribacteres” value (gut microbiota; phylum level)?
Its value is “significantly reduced and returned to normal levels”.

And the Shannon index (gut microbiota; α-diversity)?
Its Shannon index is “decreased”.

And the Simpson index (gut microbiota; α-diversity)?
Its Simpson index is “increased”.

What about the “community richness, Chao1 and ACE indices” value (gut microbiota; α-diversity) of the same molecule?
Its value is “no significant effect”.

What about the “concentration in culture medium (stability)” value ([2]; DMEM, within 24 h) of the same molecule?
Its value is “remained relatively constant”.

What about the “concentration in gastric fluid (stability)” value ([2]; SGF) of the same molecule?
The value was “decreased significantly after 60 min”.

And the “concentration in intestinal fluid (stability)” value ([2]; SIF, within 24 h)?
Its value is “remained relatively constant”.

What about the “AUC(0-t)” value ([3]; SD rats, gavage, 30 mg/kg) of the same molecule?
The value was 30,236 ng/L*min.

What about the “AUC(0-∞)” value ([3]; SD rats, gavage, 30 mg/kg) of the same molecule?
The value was 34,864 ng/L*min.

What about the “AUMC(0-t)” value ([3]; SD rats, gavage, 30 mg/kg) of the same molecule?
The value was 7,351,242.

And the “AUMC(0-∞)” value ([3]; SD rats, gavage, 30 mg/kg)?
The value was 12,023,223.

What about the Cmax ([3]; SD rats, gavage, 30 mg/kg) of the same molecule?
The Cmax was 0.113 ng/mL.

What about the Cz ([3]; SD rats, gavage, 30 mg/kg) of the same molecule?
Its Cz is 15 ng/L.

What about the Tmax ([3]; SD rats, gavage, 30 mg/kg) of the same molecule?
The Tmax was 2 h.

What about the “VRT(0-t)” value ([3]; SD rats, gavage, 30 mg/kg) of the same molecule?
The value was 31,533 min^2.

And the “VRT(0-∞)” value ([3]; SD rats, gavage, 30 mg/kg)?
The value was 107,286 min^2.

What about the Zeta ([3]; SD rats, gavage, 30 mg/kg) of the same molecule?
Its Zeta is 0.003 min⁻¹.

And the Cmax ([3]; male, SD, rat, blood, po, 30 mg/kg, SD rats, gavage, 30 mg/kg, read-out: Cmax)?
The Cmax was 0.113 ng/mL.

What about the MRT last ([3]; male, SD, rat, blood, po, 30 mg/kg, SD rats, gavage, 30 mg/kg) of the same molecule?
Its MRT last is 4.05 h.

And the half-life [3, 7]?
The half-life was 3.4 h.

What about the MRT last [3, 7] of the same molecule?
The MRT last was 4 h.

And the Tmax ([3]; male, SD, rat, blood, po, 30 mg/kg, rats, administered orally, read-out: time of peak concentration)?
The Tmax was 2 h.

What about the bioavailability ([3]; male, SD, rat, blood, po, rats, 30 mg/kg gavage vs tail vein injection, read-out: oral bioavailability (F)) of the same molecule?
The bioavailability was 27.9%.

What about the MRT inf ([3]; male, rat, blood, po, SD rats, gavage, 30 mg/kg, read-out: MRT(0-∞) (converted)) of the same molecule?
The MRT inf was 5.73 h.

And the “AUC(0-t)” value ([4]; SD rats, intravenous)?
The value was 108,480 ng/L*min.

What about the “AUC(0-∞)” value ([4]; SD rats, intravenous) of the same molecule?
The value was 136,923 ng/L*min.

What about the “AUMC(0-t)” value ([4]; SD rats, intravenous) of the same molecule?
The value was 11,816,712.

And the “AUMC(0-∞)” value ([4]; SD rats, intravenous)?
Its value is 29,781,860.

And the Cz ([4]; SD rats, intravenous)?
Its Cz is 107 ng/L.

What about the “VRT(0-t)” value ([4]; SD rats, intravenous) of the same molecule?
Its value is 10,194 min^2.

What about the “VRT(0-∞)” value ([4]; SD rats, intravenous) of the same molecule?
Its value is 66,630 min^2.

And the Zeta ([4]; SD rats, intravenous)?
Its Zeta is 0.004 min⁻¹.

And the half-life ([4]; male, rat, blood, SD rats, intravenous, read-out: T1/2)?
Its half-life is 3.03 h.

What about the half-life ([4]; male, rat, blood, rats, intravenous administration, read-out: half-life (converted)) of the same molecule?
The half-life was 3 h.

And the Cmax [4, 8]?
The Cmax was 1.09 ng/mL.

And the Tmax [4, 8]?
Its Tmax is 5 min.

What about the MRT last ([4]; male, rat, blood, SD rats, intravenous, read-out: MRT(0-t) (converted)) of the same molecule?
Its MRT last is 1.8 h.

And the MRT inf ([4]; male, rat, blood, SD rats, intravenous, read-out: MRT(0-∞) (converted))?
The MRT inf was 3.62 h.

And the “AUC intravenous relative to oral administration” value ([4]; rats)?
The value was “four times greater”.
